# Data: patent US20260241046A1, “PROSTATE-SPECIFIC MEMBRANE ANTIGEN RECEPTOR-TARGETING RADIOPHARMACEUTICALS AND USES THEREOF” (Nuclidium AG, priority 2024, published 2026)
# Tested on: PSMA-expressing tissues
# Description: The specificity of [^61Cu]Cu-NODAGA-PSMA I&T for PSMA-expressing tissues was evaluated in LNCaP xenograft mice through a blocking study. The mice were first administered with 1.3 μmol (300 μg) of 2-PMPA as a blocking agent, followed by an intravenous injection of 4-8 MBq ([…]) [^61Cu]Cu-NODAGA-PSMA I&T diluted to 100 μL in saline in the tail vein. The animals (n=4) were sacrificed 1 hour post-injection, and the organs were collected, weighed and counted in a gamma counter as already described. The results are expressed as a percentage of injected activity per gram (% IA/g) as presented in Table 27 and are compared with the results obtained from biodistribution studies.
# PET/CT imaging was also performed at 1 hour post-injection.
compound,measurement,setting,value
O=C([O-])CN1CCN(CC(=O)[O-])CCN([C@H](CCC(=O)N[C@H](Cc2ccc(O)c(I)c2)C(=O)N[C@H](Cc2ccccc2)C(=O)N[C@H](CCCCNC(=O)CCCCCCC(=O)NCCCC[C@H](NC(=O)N[C@@H](CCC(=O)O)C(=O)O)C(=O)O)C(=O)O)C(=O)O)CC1.[61Cu+2] [[^61Cu]Cu-NODAGA-PSMA I&T],"Biodistribution with 2-PMPA blocking, Adrenal",1 hour post-injection,0.96±0.87 % IA/g
same,"Biodistribution with 2-PMPA blocking, Blood",1 hour post-injection,0.44 ± 0.50 % IA/g
same,"Biodistribution with 2-PMPA blocking, Bone",1 hour post-injection,0.39 ± 0.24 % IA/g
same,"Biodistribution with 2-PMPA blocking, Heart",1 hour post-injection,0.34 ± 0.27 % IA/g
same,"Biodistribution with 2-PMPA blocking, Intestine",1 hour post-injection,0.87 ± 0.50 % IA/g
same,"Biodistribution with 2-PMPA blocking, Kidneys",1 hour post-injection,4.59±0.50 % IA/g
same,"Biodistribution with 2-PMPA blocking, LNCaP-tumor",1 hour post-injection,0.68±0.54 % IA/g
same,"Biodistribution with 2-PMPA blocking, Liver",1 hour post-injection,1.29 ± 0.53 % IA/g
same,"Biodistribution with 2-PMPA blocking, Lung",1 hour post-injection,0.67 ± 0.40 % IA/g
same,"Biodistribution with 2-PMPA blocking, Muscle",1 hour post-injection,0.32 ± 0.36 % IA/g
same,"Biodistribution with 2-PMPA blocking, Pancreas",1 hour post-injection,0.29 ± 0.19 % IA/g
same,"Biodistribution with 2-PMPA blocking, Salivary glands",1 hour post-injection,0.51 ± 0.30 % IA/g
same,"Biodistribution with 2-PMPA blocking, Spleen",1 hour post-injection,0.33±0.16 % IA/g
same,"Biodistribution with 2-PMPA blocking, Stomach",1 hour post-injection,0.62 ± 0.28 % IA/g
same,in vivo stability (transchelation),LNCaP xenograft mice,"stable in vivo, with limited transchelation phenomena"
